# Test results taken from patent publication EP3046573B1, “AMYLIN ANALOGUES” (Zealand Pharma A/S, priority 2013, dated 2015).
# Where two headings read alike, the source gives them in different places. Numbered stars: 1 amine (or outer) side, 2 acyl side, 3 side chain; on linkers, the order of the positions; unused ones are H or OH. Bridge positions count the residues as written; N and C are the ends. Square brackets hold non-standard residues; d marks the D form. Peptide text beside a SMILES is read from it. * marks the point of attachment. Pro(trans-4-Ph) = O=C(O)[C@@H]1C[C@@H](c2ccccc2)CN1; C20 diacid = O=C(O)CCCCCCCCCCCCCCCCCCC(=O)*; γGlu = O=C(O)[C@H](CCC(=O)[*:2])N[*:1]; Hyp = O=C(O)[C@@H]1C[C@@H](O)CN1; NMeI = CC[C@H](C)[C@H](NC)C(=O)O; Sar = CNCC(=O)O
# Experiments:
# [1] = molecular target: T1, human amylin receptor 3 (hAMYR3) consisting of hCTR2 co-expressed with human Receptor Activity Modifying Protein 3 (hRAMP3) (Homo sapiens, UniProt O60896+P30988); assay: hAMYR3 assay: induction of cAMP (AlphaScreen cAMP Assay kit) in COS7 cells expressing hAMYR3; format: cell-based
# T1 construct: expressed in transfected cells
# T1 sequence (P30988 25-474): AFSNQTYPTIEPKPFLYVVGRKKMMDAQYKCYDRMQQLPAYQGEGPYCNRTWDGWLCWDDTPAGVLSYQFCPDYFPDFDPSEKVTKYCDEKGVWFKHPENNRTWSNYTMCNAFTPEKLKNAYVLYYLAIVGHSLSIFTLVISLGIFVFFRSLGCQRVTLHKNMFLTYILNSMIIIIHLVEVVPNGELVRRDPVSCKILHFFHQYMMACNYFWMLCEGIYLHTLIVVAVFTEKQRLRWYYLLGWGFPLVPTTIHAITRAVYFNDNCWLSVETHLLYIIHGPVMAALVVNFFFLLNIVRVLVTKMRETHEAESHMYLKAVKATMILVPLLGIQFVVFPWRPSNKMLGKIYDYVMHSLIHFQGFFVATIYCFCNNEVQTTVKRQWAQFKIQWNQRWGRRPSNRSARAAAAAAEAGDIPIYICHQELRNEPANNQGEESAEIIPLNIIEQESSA
# T1 sequence (O60896 24-148 partner): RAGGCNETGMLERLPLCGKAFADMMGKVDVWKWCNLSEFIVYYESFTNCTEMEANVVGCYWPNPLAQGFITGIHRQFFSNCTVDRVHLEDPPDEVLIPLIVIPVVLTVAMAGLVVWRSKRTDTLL
# From the text: The cell line COS7, originating from African Green Monkey kidney fibroblast cells, was used for establishment of the stable cell lines described below. The COS7 cellular background was used due to it being RAMP naive, and as such it provides the best available system for testing of the monomeric hCTR and different heterodimeric amylin receptor subtypes functionally generated by introduction of the individual RAMPs.
# A cell line expressing the human amylin receptor 3 (hAMYR3) was generated in the COS7 cellular background as stable clones. In brief, hCTR2 (GI:4502547) and hRAMP3 (GI:118572586) were amplified by PCR using primers encoding terminal restriction sites for subcloning. The 5'-end primers additionally encoded a near Kozak consensus sequence to ensure efficient translation. The fidelity of the DNA encoding the receptor was confirmed by DNA sequencing. The PCR products encoding the receptor were subcloned into a proprietary tri-cistronic mammalian expression vector with RAMP3, hCTR2 and neomycin (G418) resistance marker. The mammalian expression vector encoding the receptor was transfected into COS7 cells by a standard liposome transfection method. 48 hours post-transfection, cells were seeded for limited dilution cloning and selected with 1 mg/ml G418 in the culture medium. After 3 weeks, surviving colonies of hAMY3R-expressing cells were picked, propagated and tested in the amylin efficacy assay as described in Example 3 below. The functional generation of the amylin receptor phenotype was verified in the efficacy assay by a left-shifted efficacy response to amylin relative to monomeric calcitonin receptor, and one hAMYR3-expressing clone was chosen for compound profiling.
# In vitro activity of test peptides at the hCTR2 and hAMYR3 receptors was assessed by measuring the induction of cAMP following stimulation of the receptor by pramlintide or peptides of the invention using the AlphaScreen® cAMP Assay kit from Perkin-Elmer.
# Briefly, COS7 cells expressing hCTR2 (see Example 2, above) were seeded at 30-40,000 cells per well in 96-well microtiter plates coated with 0.01 % poly-L-lysine, and grown for 1 day in culture in 100 µl growth medium [DMEM, 10% FCS, Penicillin (100 IU/ml), Streptomycin (100 µg/ml)]. On the day of analysis, growth medium was removed and the cells were washed once with 200 µl Tyrode buffer [Tyrode's Salts (9.6 g/l), 10 mM HEPES, pH 7.4]. Cells were incubated in 100 µl Tyrode buffer containing increasing concentrations of test peptides, 100 µM IBMX and 0.1% casein for 15 min at 37° C. The reaction was stopped by carefully decanting off the compound/buffer medium and replacing it with lysis/detection buffer (80 µl 0.1 % w/v BSA, 5 mM HEPES, 0.3 % v/v Tween-20 in deionized water). After incubation at room temperature for 10 min., the cAMP content of the resulting cell lysate was estimated according to the AlphaScreen® cAMP Assay manufacturer's instructions. EC50 values and relative efficacy values (in %) compared to reference peptide (Pramlintide) were estimated by computer-aided curve fitting using the 4-parameter logistic (4PL) non-linear model.
# The in vitro activity results (expressed as EC50 values) for peptides of the invention and for Pramlintide (reference peptide) are summarized in Table 2, below.
# [2] = Solubility assessment (turbidity absorbance at 325 nm); format: physicochemical; conditions: stock 2 mg/ml diluted 1:1, ambient temperature (typically 25°C), n=1
# Method in brief: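 Peptide stock (2 mg/ml) in water acidified to pH 2.5 with HCl was diluted 1:1 into 100 mM acetate (pH 4.0, 5.0), histidine (pH 6.0, 7.0) or phosphate (pH 6.0, 7.0, 7.5) buffer. A280 and A325 were read at about 25°C, n=1. A325 ≤ 0.02 meant solubility ≥ 1 mg/ml.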
# [3] = molecular target: T2, human calcitonin receptor (hCTR2) (Homo sapiens, UniProt P30988); assay: hCTR2 assay: induction of cAMP (AlphaScreen cAMP Assay kit) in COS7 cells expressing hCTR2; format: cell-based; conditions: cAMP induction in COS7 cells expressing hCTR2; average of a minimum of 3 determinations; read-out: hCTR2 EC50
# T2 construct: expressed in transfected cells
# T2 sequence (P30988 25-474): T1 sequence (P30988 25-474)
# Method in brief: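 Stable RAMP-naive COS7 clone expressing hCTR2 was stimulated with increasing peptide concentrations in Tyrode buffer (pH 7.4) with 100 µM IBMX and 0.1% casein for 15 min at 37° C. Cells were lysed and cAMP measured by AlphaScreen. EC50 and efficacy relative to pramlintide came from 4PL curve fits.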
# [4] = cAMP induction in COS7 cells expressing hAMYR3, average of a minimum of 3 determinations, read-out: hAMY R3 EC50
EC50 [3] [nM],"EC50 [1, 4] [nM]",Compound,EC50 [1] [nM],"Solubility, Acetate buffer pH 4 ([2]; 100 mM acetate buffer pH 4.0)","Solubility, Acetate buffer pH 5 ([2]; 100 mM acetate buffer pH 5.0)","Solubility, Histidine buffer pH 6 ([2]; 100 mM histidine buffer pH 6.0)","Solubility, Histidine buffer pH 7 ([2]; 100 mM histidine buffer pH 7.0)","Solubility, Phosphate buffer pH 6 ([2]; 100 mM phosphate buffer pH 6.0)","Solubility, Phosphate buffer pH 7 ([2]; 100 mM phosphate buffer pH 7.0)","Solubility, Phosphate buffer pH 7.5 ([2]; 100 mM phosphate buffer pH7.5)"
,,"CC[C@H](C)[C@@H](C(=O)N[C@@H](CC(C)C)C(=O)N[C@@H](CO)C(=O)N[C@@H](CO)C(=O)N[C@H](C(=O)N[C@@H](CC(N)=O)C(=O)N[C@H](C(=O)NCC(=O)N[C@@H](CO)C(=O)N[C@@H](CC(N)=O)C(=O)N[C@H](C(=O)N1CCC[C@H]1C(N)=O)[C@@H](C)O)C(C)C)[C@@H](C)O)N(C)C(=O)[C@H](C)NC(=O)CN(C)C(=O)[C@H](Cc1ccccc1)NC(=O)[C@H](CC(N)=O)NC(=O)[C@H](CC(N)=O)NC(=O)[C@H](CO)NC(=O)[C@H](CO)NC(=O)[C@H](CCCNC(=N)N)NC(=O)[C@H](Cc1c[nH]cn1)NC(=O)[C@H](CC(C)C)NC(=O)[C@H](Cc1ccccc1)NC(=O)[C@H](CCC(=O)O)NC(=O)[C@H](C)NC(=O)[C@H](CC(C)C)NC(=O)[C@H](CCCNC(=N)N)NC(=O)[C@H](CCC(N)=O)NC(=O)[C@@H](NC(=O)[C@H](C)NC(=O)[C@@H]1CSSC[C@H](NC(=O)[C@H](CCCNC(=N)N)NC(=O)[C@H](CCCNC(=N)N)NC(=O)CC[C@H](NC(=O)CCCCCCCCCCCCCCCCCCC(=O)O)C(=O)O)C(=O)N[C@@H](CC(N)=O)C(=O)N[C@@H]([C@@H](C)O)C(=O)N[C@@H](C)C(=O)N[C@@H]([C@@H](C)O)C(=O)N1)[C@@H](C)O [Compound 83, [19CD]-isoGlu-RRC()NTATC()ATQRLAEFLHRSSNNF-Gly(Me)-A-Ile(Me)-LSSTNVGSNTP-NH2] ({C20 diacid-γGlu}-RRCNTATCATQRLAEFLHRSSNNF[Sar]A[NMeI]LSSTNVGSNTP-NH2; disulfide 3-8)",0.095,SS (SS indicates solubility ≥ 1mg/ml),SS (SS indicates solubility ≥ 1mg/ml),SS (SS indicates solubility ≥ 1mg/ml),SS (SS indicates solubility ≥ 1mg/ml),SS (SS indicates solubility ≥ 1mg/ml),SS (SS indicates solubility ≥ 1mg/ml),SS (SS indicates solubility ≥ 1mg/ml)
0.12,0.14,"CC[C@H](C)[C@@H](C(=O)N[C@@H](CC(C)C)C(=O)N[C@@H](CO)C(=O)N[C@@H](CO)C(=O)N[C@H](C(=O)N[C@@H](CC(N)=O)C(=O)N[C@H](C(=O)NCC(=O)N[C@@H](CO)C(=O)N[C@@H](CC(N)=O)C(=O)N[C@H](C(=O)N1C[C@H](O)C[C@H]1C(N)=O)[C@@H](C)O)C(C)C)[C@@H](C)O)N(C)C(=O)CN(C)C(=O)[C@H](Cc1ccccc1)NC(=O)[C@H](CC(N)=O)NC(=O)[C@H](CC(N)=O)NC(=O)[C@H](CO)NC(=O)[C@H](CO)NC(=O)[C@H](CCCNC(=N)N)NC(=O)[C@H](Cc1c[nH]cn1)NC(=O)[C@H](CC(C)C)NC(=O)[C@H](Cc1ccccc1)NC(=O)[C@H](CCC(=O)O)NC(=O)[C@H](C)NC(=O)[C@H](CC(C)C)NC(=O)[C@H](CCCNC(=N)N)NC(=O)[C@H](CCC(N)=O)NC(=O)[C@@H](NC(=O)[C@H](C)NC(=O)[C@@H]1CSSC[C@H](NC(=O)[C@H](CCCNC(=N)N)NC(=O)CC[C@H](NC(=O)CCCCCCCCCCCCCCCCCCC(=O)O)C(=O)O)C(=O)N[C@@H](CC(N)=O)C(=O)N[C@@H]([C@@H](C)O)C(=O)N[C@@H](C)C(=O)N[C@@H]([C@@H](C)O)C(=O)N1)[C@@H](C)O [Compound 106, [19CD]-isoGlu-RC()NTATC()ATQRLAEFLHRSSNNF-Gly(Me)-Ile(Me)-LSSTNVGSNT-Hyp-NH2] ({C20 diacid-γGlu}-RCNTATCATQRLAEFLHRSSNNF[Sar][NMeI]LSSTNVGSNT[Hyp]-NH2; disulfide 2-7)",,,,,,,,
0.17,0.19,"CC[C@H](C)[C@@H](C(=O)N[C@@H](CC(C)C)C(=O)N[C@@H](CO)C(=O)N[C@@H](CO)C(=O)N[C@H](C(=O)N[C@@H](CC(N)=O)C(=O)N[C@H](C(=O)NCC(=O)N[C@@H](CO)C(=O)N[C@@H](CC(N)=O)C(=O)N[C@H](C(=O)N1C[C@H](c2ccccc2)C[C@H]1C(N)=O)[C@@H](C)O)C(C)C)[C@@H](C)O)N(C)C(=O)CN(C)C(=O)[C@H](Cc1ccccc1)NC(=O)[C@H](CC(N)=O)NC(=O)[C@H](CC(N)=O)NC(=O)[C@H](CO)NC(=O)[C@H](CO)NC(=O)[C@H](CCCNC(=N)N)NC(=O)[C@H](Cc1c[nH]cn1)NC(=O)[C@H](CC(C)C)NC(=O)[C@H](Cc1ccccc1)NC(=O)[C@H](CCC(=O)O)NC(=O)[C@H](C)NC(=O)[C@H](CC(C)C)NC(=O)[C@H](CCCNC(=N)N)NC(=O)[C@H](CCC(N)=O)NC(=O)[C@@H](NC(=O)[C@H](C)NC(=O)[C@@H]1CSSC[C@H](NC(=O)[C@H](CCCNC(=N)N)NC(=O)CC[C@H](NC(=O)CCCCCCCCCCCCCCCCCCC(=O)O)C(=O)O)C(=O)N[C@@H](CC(N)=O)C(=O)N[C@@H]([C@@H](C)O)C(=O)N[C@@H](C)C(=O)N[C@@H]([C@@H](C)O)C(=O)N1)[C@@H](C)O [Compound 113, [19CD]-isoGlu-RC()NTATC()ATQRLAEFLHRSSNNF-Gly(Me)-Ile(Me)-LSSTNVGSNT-Php-NH2] ({C20 diacid-γGlu}-RCNTATCATQRLAEFLHRSSNNF[Sar][NMeI]LSSTNVGSNT[Pro(trans-4-Ph)]-NH2; disulfide 2-7)",,,,,,,,
